Assays:
Assay type in all cases: cell-based
[1] = target: EP4 subtype of the human PGE2 receptor (Homo sapiens, UniProt P35408); assay: cAMP antagonism test on the human EP4 receptor (HTRF cAMP detection); settings: selectivity towards hEP4, IC50 measured by cAMP antagonism test
Procedure, shortened: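 Cells expressing human EP4 preincubated 20 min at RT with compound (0.8 nM–16.5 μM), then stimulated with PGE2 (0.3 nM in 3× solution, with IBMX) 60 min at RT. After lysis, cAMP measured by HTRF competition (665/620 nm ratio); antagonism seen as rise in FRET signal.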

[2] = target: T1, human PGD receptor (Homo sapiens, UniProt Q13258); assay: cAMP antagonism test on the human prostaglandin D receptor (HTRF cAMP detection); settings: selectivity towards hDP, IC50 measured by cAMP antagonism test
T1 sequence (Q13258 1-359): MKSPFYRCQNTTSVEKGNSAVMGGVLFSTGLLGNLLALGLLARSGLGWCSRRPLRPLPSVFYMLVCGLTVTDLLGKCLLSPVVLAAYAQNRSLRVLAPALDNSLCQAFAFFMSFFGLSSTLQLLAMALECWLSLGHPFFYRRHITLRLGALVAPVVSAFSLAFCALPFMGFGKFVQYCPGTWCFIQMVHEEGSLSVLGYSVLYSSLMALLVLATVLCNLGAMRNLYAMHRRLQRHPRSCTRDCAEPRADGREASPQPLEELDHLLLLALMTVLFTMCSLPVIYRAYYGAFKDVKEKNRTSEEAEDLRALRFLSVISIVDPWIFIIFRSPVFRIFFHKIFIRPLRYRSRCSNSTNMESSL
Procedure, shortened: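 Cells pre-mixed with cAMP-d2 were preincubated with compound (0.8 nM–16.5 μM) for 20 min at RT, then stimulated with 3× PGD2 solution (6 nM, in PBS-IBMX) for 30 min at RT. After lysis (20 min), HTRF read at 665/620 nm; antagonism seen as rise in FRET ratio.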

[3] = target: EP2 subtype of the human PGE2 receptor (Homo sapiens, UniProt P43116); assay: cAMP antagonism test on the human EP2 receptor (HTRF cAMP detection); settings: hEP2 receptor, read-out: Antagonism hEP2 IC50
Sequence of EP2 subtype of the human PGE2 receptor (P43116 whole entry): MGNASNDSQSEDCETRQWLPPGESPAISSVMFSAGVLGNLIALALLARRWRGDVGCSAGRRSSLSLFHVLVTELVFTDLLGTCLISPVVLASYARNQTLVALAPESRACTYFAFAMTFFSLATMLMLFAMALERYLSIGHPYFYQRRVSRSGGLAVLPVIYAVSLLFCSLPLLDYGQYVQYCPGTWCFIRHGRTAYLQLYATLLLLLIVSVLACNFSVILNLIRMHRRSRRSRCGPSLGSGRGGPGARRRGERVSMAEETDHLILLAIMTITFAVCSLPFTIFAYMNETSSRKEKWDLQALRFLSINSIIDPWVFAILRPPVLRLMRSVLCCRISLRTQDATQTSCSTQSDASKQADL
Procedure, shortened: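 Cells expressing human EP2 preincubated 20 min at RT with compound (0.8 nM–16.5 μM), then stimulated 60 min with PGE2 (3× solution 1.5 nM) in PBS-IBMX. After 20 min lysis, cAMP measured by competitive HTRF with cAMP-d2 and Eu cryptate anti-cAMP antibody (665/620 nm ratio).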

Sequence of EP4 subtype of the human PGE2 receptor (P35408 whole entry): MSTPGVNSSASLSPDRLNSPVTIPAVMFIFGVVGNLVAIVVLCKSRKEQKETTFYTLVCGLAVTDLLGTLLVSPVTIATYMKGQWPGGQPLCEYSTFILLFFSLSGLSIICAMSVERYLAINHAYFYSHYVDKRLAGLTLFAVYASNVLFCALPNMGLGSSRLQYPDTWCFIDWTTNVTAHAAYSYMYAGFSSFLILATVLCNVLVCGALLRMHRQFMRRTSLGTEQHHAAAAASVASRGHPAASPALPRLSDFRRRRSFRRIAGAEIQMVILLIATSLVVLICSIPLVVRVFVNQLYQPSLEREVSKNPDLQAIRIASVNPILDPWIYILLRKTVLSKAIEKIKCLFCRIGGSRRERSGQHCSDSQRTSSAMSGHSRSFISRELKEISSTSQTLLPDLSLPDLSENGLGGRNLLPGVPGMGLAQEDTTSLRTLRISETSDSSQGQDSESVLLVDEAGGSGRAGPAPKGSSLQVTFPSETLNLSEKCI

Selectivity hEP2/hEP4 [1] | Selectivity hEP2/hDP [2] | IC50 [3] | Structure (SMILES)
xx (xx: 10-100) | xx (xx: 10-100) | 405 nM | Cc1c(C(=O)NCCN2CCOCC2)ccc2nn(CC3CCN(C(=O)c4ccc(Oc5ccc(F)cc5)cc4)CC3)cc12 [Example 67, 2-({1-[4-(4-fluoro-phenoxy)benzoyl]-piperidin-4-yl}-methyl)-4-methyl-N-(2-morpholinoethyl)-2H-indazol-5-carboxamide]
x (x: 1-10) | x (x: 1-10) | 2790 nM | Cc1c(C(=O)NCCN2CCOCC2)ccc2nn(CC3CCN(C(=O)c4cccc(C(F)(F)F)c4)CC3)cc12 [Example 65, 4-methyl-N-(2-morpholinoethyl)-2-({1-[3-(trifluoromethyl)benzoyl]piperidin-4-yl}methyl)-2H-indazol-5-carboxamide]
xxx (xxx > 100) | xxx (xxx > 100) | 3.88 nM | COCCNC(=O)c1ccc2nn(CC3CN(C(=O)c4cc5cc(Cl)ccc5n4C)C3)cc2c1C [Example 171, 2-({1-[(5-chloro-1-methyl-1H-indol-2-yl)carbonyl]azetidin-3-yl}methyl)-N-(2-methoxyethyl)-4-methyl-2H-indazol-5-carboxamide]
xxx (xxx > 100) | xxx (xxx > 100) | 9.67 nM | COCCNC(=O)c1ccc2nn(CC3CCN(C(=O)c4ccc(OC(F)(F)F)cc4)CC3)cc2c1C [Example 55, N-(2-methoxyethyl)-4-methyl-2-({1-[4-(trifluoromethoxy)benzoyl]piperidin-4-yl}methyl)-2H-indazol-5-carboxamide]
xxx (xxx > 100) | xxx (xxx > 100) | 44.2 nM | Cc1c(C(=O)NCCS(C)(=O)=O)ccc2nn(CC3CCN(C(=O)c4ccc(Cl)cc4)CC3)cc12 [Example 244, 2-{[1-(4-chlorobenzoyl)piperidin-4-yl]methyl}-N-(2-mesylethyl)-4-methyl-2H-indazol-5-carboxamide]
xxx (xxx > 100) | xxx (xxx > 100) | 8.01 nM | COCCNC(=O)c1ccc2nn(CC3CCN(C(=O)c4ccc(Oc5ccc(F)cc5F)cc4)CC3)cc2c1C [Example 358, 2-({1-[4-(2,4-difluorophenoxy)benzoyl]piperidin-4-yl}methyl)-N-(2-methoxy-ethyl)-4-methyl-2H-indazol-5-carboxamide]
xxx (xxx > 100) | xxx (xxx > 100) | 15.5 nM | COCCNC(=O)c1ccc2nn(CC3CN(C(=O)c4ccc(Cl)cc4F)C3)cc2c1C [Example 121, 2-{[1-(4-chloro-2-fluorobenzoyl)azetidin-3-yl]methyl}-N-(2-methoxyethyl)-4-methyl-2H-indazol-5-carboxamide]
xxx (xxx > 100) | xxx (xxx > 100) | 7.99 nM | COCCNC(=O)c1ccc2nn(CC3CN(C(=O)c4ccc(C5CC5)cc4)C3)cc2c1C [Example 124, 2-{[1-(4-cyclopropylbenzoyl)azetidin-3-yl]methyl}-N-(2-methoxyethyl)-4-methyl-2H-indazol-5-carboxamide]
xxx (xxx > 100) | xxx (xxx > 100) | 106 nM | CCc1c(C(=O)NCCOC)ccc2nn(CC3CCN(C(=O)c4ccc(Cl)cc4)CC3)cc12 [Example 212, 2-{[1-(4-chlorobenzoyl)piperidin-4-yl]methyl}-4-ethyl-N-(2-methoxyethyl)-2H-indazol-5-carboxamide]
xxx (xxx > 100) | xxx (xxx > 100) | 20.1 nM | COCCNC(=O)c1ccc2nn(CC3CN(C(=O)c4cn(C)c5ccccc45)C3)cc2c1C [Example 282, N-(2-methoxyethyl)-4-methyl-2-({1-[(1-methyl-1H-indol-3-yl)carbonyl]azetidin-3-yl}methyl)-2H-indazol-5-carboxamide]
xxx (xxx > 100) | xxx (xxx > 100) | 67 nM | Cc1cc2nn(CC3CCN(C(=O)c4ccc(OC(F)(F)F)cc4)CC3)cc2cc1C(=O)NCCN1CCOCC1 [Example 75, 6-methyl-N-(2-morpholinoethyl)-2-({1-[4-(trifluorometh-oxy)benzoyl]piperidin-4-yl}methyl)-2H-indazol-5-carboxamide]
xxx (xxx > 100) | xxx (xxx > 100) | 34.2 nM | COCCNC(=O)c1ccc2nn(CC3CCN(C(=O)c4ccc(C#N)cc4)CC3)cc2c1C [Example 33, 2-{[1-(4-cyano-benzoyl)piperidin-4-yl]methyl}-N-(2-methoxyethyl)-4-methyl-2H-indazol-5-carboxamide]
xxx (xxx > 100) | xxx (xxx > 100) | 25.2 nM | COCCNC(=O)c1ccc2nn(CC3CCN(C(=O)c4ccc(S(=O)(=O)C(F)(F)F)cc4)CC3)cc2c1C [Example 25, N-(2-methoxyethyl)-4-methyl-2-[(1-{4-[(trifluoromethyl)-sulphonyl]benzoyl}-piperidin-4-yl)-methyl]-2H-indazol-5-carboxamide]
xx (xx: 10-100) | xx (xx: 10-100) | 305 nM | CCNC(=O)c1ccc2nn(CC3CCN(C(=O)c4ccc(Cl)cc4)CC3)cc2c1C [Example 242, 2-{[1-(4-chlorobenzoyl)piperidin-4-yl]methyl}-N-ethyl-4-methyl-2H-indazol-5-carboxamide]
xxx (xxx > 100) | xxx (xxx > 100) | 53.9 nM | Cc1cc2nn(CC3CCN(C(=O)c4ccc(S(F)(F)(F)(F)F)cc4)CC3)cc2cc1C(=O)NCCN1CCOCC1 [Example 77, 6-methyl-N-(2-morpholinoethyl)-2-({1-[4-(pentafluoro-λ^6-sulphanyl)benzoyl]piperidin-4-yl}methyl)-2H-indazol-5-carboxamide]
xxx (xxx > 100) | xxx (xxx > 100) | 9.33 nM | Cc1c(C(=O)NCCOCC(F)(F)F)ccc2nn(CC3CN(C(=O)c4ccc(Cl)cc4)C3)cc12 [Example 162, 2-{[1-(4-chlorobenzoyl)azetidin-3-yl]methyl}-4-methyl-N-[2-(2,2,2-trifluoro-ethoxy)ethyl]-2H-indazol-5-carboxamide]
xxx (xxx > 100) | xxx (xxx > 100) | 29.4 nM | Cc1c(C(=O)NCC(C)OC2CCC2)ccc2nn(CC3CN(C(=O)c4ccc(Cl)cc4)C3)cc12 (single isomer, unassigned) [Example 155, (S or R)-2-{[1-(4-chlorobenzoyl)azetidin-3-yl]methyl}-N-[2-(cyclobutyloxy)-propyl]-4-methyl-2H-indazol-5-carboxamide]

Structure (SMILES) | Selectivity hEP2/hEP4 [1] | Selectivity hEP2/hDP [2] | IC50 [3]
COCCNC(=O)c1ccc2nn(CC3CCN(C(=O)c4ccc(OC(C)(C)C)cc4)CC3)cc2c1C [Example 2, 2-({1-[4-tert-(butoxy)benzoyl]piperidin-4-yl}methyl)-N-(2-methoxyethyl)-4-methyl-2H-indazol-5-carboxamide] | xxx (xxx > 100) | xxx (xxx > 100) | 21.7 nM
